From BindingDB's records for doi:10.1016/j.bmcl.2018.04.050 (Abbvie, 2018)

Columns and labels:
[1] = Binding affinity to thrombin cleavable N-terminal 6His tagged and 13C-IVLM labeled human KDM4A tandem TUDOR domain (897 to 1011 residues) expressed in Escherichia coli BL21(DE3)-T1R assessed as apparent Kd for H3(1-10)K4me3 peptide at 1 mM by ITC method (Rvb = 5.2 +/- 0.3 uM)
[2] = Binding affinity to thrombin cleavable N-terminal 6His tagged and 13C-IVLM labeled human KDM4A tandem TUDOR domain (897 to 1011 residues) expressed in Escherichia coli BL21(DE3)-T1R assessed as apparent Kd for H3(1-10)K4me3 peptide at 0.5 mM by ITC method (Rvb = 5.2 +/- 0.3 uM)
[3] = Binding affinity to thrombin cleavable N-terminal 6His tagged and 13C-IVLM labeled human KDM4A tandem TUDOR domain (897 to 1011 residues) expressed in Escherichia coli BL21(DE3)-T1R assessed as apparent Kd for H3(1-10)K4me3 peptide at 2.5 mM by ITC method (Rvb = 5.2 +/- 0.3 uM)

- Kd [1]: 22.7 µM
- Kd [2]: 15.5 µM
- Kd [3]: 55.1 µM
Compound: CN(C)C[C@H]1C2CCC(c3ccccc3)(C2)[C@H]1O (stereo partly drawn)
